The text below walks through data of PMC4259467, “Molecular Cloning, Characterization and Positively Selected Sites of the Glutathione S-Transferase Family from Locusta migratoria” (PLoS ONE, 2014).

One test deals with T1, LmGSTD7 (Locusta migratoria, UniProt V9Q328).
T1 construct: gene GSTd7; full-length ORF in pET28a, E. coli BL21(DE3), His-tag Ni-NTA purified
T1 sequence (V9Q328 1-233): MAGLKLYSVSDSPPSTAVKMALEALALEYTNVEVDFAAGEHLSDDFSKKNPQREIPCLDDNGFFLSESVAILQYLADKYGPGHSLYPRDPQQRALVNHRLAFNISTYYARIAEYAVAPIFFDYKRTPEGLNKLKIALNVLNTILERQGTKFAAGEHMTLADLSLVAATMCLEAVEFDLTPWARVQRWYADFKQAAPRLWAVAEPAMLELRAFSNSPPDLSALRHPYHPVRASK
In words: spectrophotometric GST assay, steady state. The test is classed as biochemical. The conditions noted are these: co-substrate GSH; pH and temperature not given; read-out: K m ^CDNB. The text has this:
spectrophotometric GST assay, steady state on LmGSTD7

The next test concerns the target T2, LmGSTE4 (Locusta migratoria, UniProt V9Q318).
T2 construct: gene GSTe4; full-length ORF in pET28a, E. coli BL21(DE3), His-tag Ni-NTA purified
T2 sequence (V9Q318 1-221): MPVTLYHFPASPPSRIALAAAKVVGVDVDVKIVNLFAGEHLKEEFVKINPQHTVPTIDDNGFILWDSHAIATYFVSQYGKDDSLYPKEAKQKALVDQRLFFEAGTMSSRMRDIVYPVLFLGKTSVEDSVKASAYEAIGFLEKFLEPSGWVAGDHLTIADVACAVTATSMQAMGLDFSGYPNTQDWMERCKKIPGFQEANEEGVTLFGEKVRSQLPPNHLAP
In words: spectrophotometric GST assay, steady state. The test is classed as biochemical. The conditions noted are these: co-substrate GSH; pH and temperature not given; read-out: K m ^CDNB. The text has this: spectrophotometric GST assay, steady state on LmGSTE4

As for `O=[N+]([O-])c1ccc(Cl)c([N+](=O)[O-])c1` [CDNB], the Km is 492 ± 39 µM on LmGSTD7 and 102 ± 8 µM on LmGSTE4.
